Experimental data from patent publication US12503485B2, “Human aminosterol ENT-03 compounds, related compositions comprising the same, and methods of using the same” (Enterin, Inc., priority 2019, dated 2025).
pIC50: −log10 of the molar value.

Columns and labels:
PTPN11/SHP2 = PTPN11/SHP2 (Homo sapiens, UniProt Q06124); assay: Phosphatase assay PTPN11/SHP2; type: biochemical; conditions: Table 2C; read-out: Compound IC50 (M) PTPN11/SHP2
PTPN11/SHP2-FL (E76K) = molecular target: T1, PTPN11/SHP2-FL (E76K) (Homo sapiens, UniProt Q06124, E76K); assay: Phosphatase assay PTPN11/SHP2-FL (E76K)
T1 sequence (Q06124 2-597 isoform Q06124-1 E76K): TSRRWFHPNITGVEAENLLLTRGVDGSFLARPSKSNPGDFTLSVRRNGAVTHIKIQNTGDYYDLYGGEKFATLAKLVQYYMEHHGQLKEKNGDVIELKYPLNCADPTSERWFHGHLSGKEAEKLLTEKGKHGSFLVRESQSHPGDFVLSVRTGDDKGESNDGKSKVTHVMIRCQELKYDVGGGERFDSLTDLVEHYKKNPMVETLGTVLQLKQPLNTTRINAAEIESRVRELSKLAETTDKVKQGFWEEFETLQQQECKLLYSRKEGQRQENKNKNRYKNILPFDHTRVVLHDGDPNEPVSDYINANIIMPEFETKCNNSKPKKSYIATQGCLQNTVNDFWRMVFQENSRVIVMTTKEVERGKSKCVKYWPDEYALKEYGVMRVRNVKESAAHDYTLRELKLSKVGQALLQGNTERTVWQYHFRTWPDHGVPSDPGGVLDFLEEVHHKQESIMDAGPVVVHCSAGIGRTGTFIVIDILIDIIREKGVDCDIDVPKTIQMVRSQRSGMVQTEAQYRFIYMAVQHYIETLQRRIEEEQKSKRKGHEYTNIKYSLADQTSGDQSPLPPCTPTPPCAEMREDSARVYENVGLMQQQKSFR

stomach mRNA = assay: Stomach transcriptome (RNAseq) after oral ENT-01 in old mice; type: in vivo; conditions: old mice after treatment
Method: (§1) Male C57Bl/6 mice, aged 20 and 78 weeks, were obtained from Jackson labs. Animals were exposed to 12 hr light dark cycles and provided Teklad standard mouse diet and water ad lib.
(§2) Animals were dosed once daily by oral gavage in the morning for a total of 14 days. Animals were fasted 3-4 hours prior to dosing and at least 1 hour following dosing, with fasting not to exceed 6 hours. The test article was dissolved in 0.5% hydroxypropylcellulose in water. On day 15 the animals were euthanized by CO2 asphyxiation, necropsied, and tissues prepared for histology and RNAseq analysis.
The GI tracts of the animals were sectioned into stomach, duodenum, jejunum, ileum, caecum, colon, and rectum. The tissues were then sent for histology, and the transcriptomes analyzed by RNAseq.

[1] = test system: stomach tissues gene expression; assay: Stomach RNA-sequencing, effect size evaluation of treatment contrasts; type: in vivo, mice
Method: as §1, §2
Samples of stomach tissues from the mice were analysed by RNA-sequencing on an Illumina platform.
A four-fold change in expression between groups was used as a measure of pseudo-significance in the absence of replicate samples. At this threshold, differentially expressed genes were identified in all contrasts. […]

PP1B = molecular target: T2, PP1B (Homo sapiens, UniProt P62140); assay: Phosphatase assay PP1B (DiFMUP fluorescence); type: biochemical
T2 construct: purchased Recation Biology Inc
T2 sequence (P62140 whole entry): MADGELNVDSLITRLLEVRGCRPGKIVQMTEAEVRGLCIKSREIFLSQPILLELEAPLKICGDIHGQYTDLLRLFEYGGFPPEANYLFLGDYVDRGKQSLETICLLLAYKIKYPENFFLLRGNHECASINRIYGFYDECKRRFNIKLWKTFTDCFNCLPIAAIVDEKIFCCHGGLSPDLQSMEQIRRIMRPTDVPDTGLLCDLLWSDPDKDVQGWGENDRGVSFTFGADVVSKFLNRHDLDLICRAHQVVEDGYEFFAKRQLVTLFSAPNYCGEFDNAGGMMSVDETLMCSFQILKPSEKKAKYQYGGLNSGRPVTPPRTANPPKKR

PP1A = molecular target: T3, PP1A (Homo sapiens, UniProt P62136); assay: Phosphatase assay PP1A (DiFMUP fluorescence); type: biochemical
T3 construct: purchased Recation Biology Inc
T3 sequence (P62136 whole entry): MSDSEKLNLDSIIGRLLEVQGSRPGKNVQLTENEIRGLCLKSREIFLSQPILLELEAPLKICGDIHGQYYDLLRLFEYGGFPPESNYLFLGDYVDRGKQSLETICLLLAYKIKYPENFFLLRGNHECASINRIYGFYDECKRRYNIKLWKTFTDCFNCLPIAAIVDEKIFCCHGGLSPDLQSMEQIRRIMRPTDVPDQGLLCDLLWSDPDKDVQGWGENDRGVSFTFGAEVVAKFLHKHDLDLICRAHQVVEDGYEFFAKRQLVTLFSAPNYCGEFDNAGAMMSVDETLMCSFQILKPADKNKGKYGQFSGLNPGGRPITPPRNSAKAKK

[2] = molecular target: T4, PP2A Alpha/PP2R1A Complex (Homo sapiens, UniProt P67775); assay: Phosphatase assay PP2A Alpha/PP2R1A Complex; type: biochemical
T4 construct: purchased Recation Biology Inc
T4 sequence (P67775 whole entry): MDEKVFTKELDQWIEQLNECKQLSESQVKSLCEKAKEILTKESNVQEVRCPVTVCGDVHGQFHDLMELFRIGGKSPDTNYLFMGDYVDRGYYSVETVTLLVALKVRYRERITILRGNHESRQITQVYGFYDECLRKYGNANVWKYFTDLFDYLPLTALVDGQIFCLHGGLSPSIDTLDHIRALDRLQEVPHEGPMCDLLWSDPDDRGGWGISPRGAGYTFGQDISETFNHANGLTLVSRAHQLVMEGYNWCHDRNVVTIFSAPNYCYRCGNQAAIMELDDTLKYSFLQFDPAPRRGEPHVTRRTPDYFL
T4 sequence (P30153 whole entry partner): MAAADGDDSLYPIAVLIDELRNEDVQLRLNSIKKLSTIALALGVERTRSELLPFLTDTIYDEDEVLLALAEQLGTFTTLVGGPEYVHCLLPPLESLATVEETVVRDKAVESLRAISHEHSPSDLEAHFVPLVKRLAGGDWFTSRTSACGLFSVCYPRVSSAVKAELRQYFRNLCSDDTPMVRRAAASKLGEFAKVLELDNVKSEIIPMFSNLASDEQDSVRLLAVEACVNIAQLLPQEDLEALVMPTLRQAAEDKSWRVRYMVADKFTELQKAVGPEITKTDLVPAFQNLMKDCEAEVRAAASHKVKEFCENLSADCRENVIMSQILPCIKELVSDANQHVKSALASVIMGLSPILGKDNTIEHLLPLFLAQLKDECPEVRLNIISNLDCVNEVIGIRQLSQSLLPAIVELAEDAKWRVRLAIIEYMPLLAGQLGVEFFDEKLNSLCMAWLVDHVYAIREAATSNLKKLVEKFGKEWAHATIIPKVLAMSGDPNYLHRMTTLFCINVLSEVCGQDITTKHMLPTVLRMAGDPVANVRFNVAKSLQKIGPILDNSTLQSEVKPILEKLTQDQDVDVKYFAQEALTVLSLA

PTPN6/SHP1 = molecular target: T5, PTPN6/SHP1 (Homo sapiens, UniProt P29350); assay: Phosphatase assay PTPN6/SHP1; type: biochemical
T5 construct: purchased Recation Biology Inc
T5 sequence (P29350 whole entry): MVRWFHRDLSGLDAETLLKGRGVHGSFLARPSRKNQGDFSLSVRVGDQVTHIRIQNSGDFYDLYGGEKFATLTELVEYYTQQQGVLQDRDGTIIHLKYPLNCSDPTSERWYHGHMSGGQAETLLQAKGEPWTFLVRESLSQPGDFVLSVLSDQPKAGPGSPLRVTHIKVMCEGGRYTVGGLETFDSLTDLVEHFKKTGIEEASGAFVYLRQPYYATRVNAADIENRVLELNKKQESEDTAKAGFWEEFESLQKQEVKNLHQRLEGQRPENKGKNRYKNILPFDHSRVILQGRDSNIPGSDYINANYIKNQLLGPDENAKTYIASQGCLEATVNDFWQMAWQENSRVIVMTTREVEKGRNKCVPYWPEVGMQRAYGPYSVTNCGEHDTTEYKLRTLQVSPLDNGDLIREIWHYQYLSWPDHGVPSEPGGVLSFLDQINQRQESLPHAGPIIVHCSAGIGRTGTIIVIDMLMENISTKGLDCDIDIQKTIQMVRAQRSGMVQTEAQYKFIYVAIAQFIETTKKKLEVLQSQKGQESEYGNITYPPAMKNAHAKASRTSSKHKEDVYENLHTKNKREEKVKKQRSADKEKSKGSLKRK

PTPN2/TC-PTP = molecular target: T6, PTPN2/TC-PTP (Homo sapiens, UniProt P17706); assay: Phosphatase assay PTPN2/TC-PTP; type: biochemical
T6 construct: purchased Recation Biology Inc
T6 sequence (P17706 1-415): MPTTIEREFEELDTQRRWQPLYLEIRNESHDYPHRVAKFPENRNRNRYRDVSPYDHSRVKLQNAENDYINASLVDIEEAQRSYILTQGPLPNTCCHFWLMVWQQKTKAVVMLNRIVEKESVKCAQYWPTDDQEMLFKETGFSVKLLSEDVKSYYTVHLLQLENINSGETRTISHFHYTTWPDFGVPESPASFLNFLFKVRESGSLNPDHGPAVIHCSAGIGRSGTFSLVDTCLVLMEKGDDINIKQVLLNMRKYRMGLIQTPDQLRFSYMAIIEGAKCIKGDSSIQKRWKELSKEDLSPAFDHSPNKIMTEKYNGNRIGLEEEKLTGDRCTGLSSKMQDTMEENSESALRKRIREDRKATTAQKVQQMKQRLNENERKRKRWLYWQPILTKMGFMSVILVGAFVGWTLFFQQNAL

[3] = Body weight of mice after i.p. deuterated ENT-03; type: in vivo
From the text: The presence of the deuterium on the side chain likely slows the action of the 2-methylacyl-coenzyme A racemase on C-25, the subsequent action of the dehydrogenase that produces the 24,25-trans-unsaturated derivative by removing the deuterium atoms at C24 and C25, and the subsequent hydration and oxidation at the C24 bond catalyzed by the D-bifunctional protein. Instead, the metabolism of ENT-03D3 will begin with the oxidation at C24 by CYP46A1, yielding the following compound: […]

FXR = FXR (Homo sapiens, UniProt Q96RI1); conditions: Ogundare et al., 2010; cited from earlier work
FXR, sequence (Q96RI1 whole entry, species assumed): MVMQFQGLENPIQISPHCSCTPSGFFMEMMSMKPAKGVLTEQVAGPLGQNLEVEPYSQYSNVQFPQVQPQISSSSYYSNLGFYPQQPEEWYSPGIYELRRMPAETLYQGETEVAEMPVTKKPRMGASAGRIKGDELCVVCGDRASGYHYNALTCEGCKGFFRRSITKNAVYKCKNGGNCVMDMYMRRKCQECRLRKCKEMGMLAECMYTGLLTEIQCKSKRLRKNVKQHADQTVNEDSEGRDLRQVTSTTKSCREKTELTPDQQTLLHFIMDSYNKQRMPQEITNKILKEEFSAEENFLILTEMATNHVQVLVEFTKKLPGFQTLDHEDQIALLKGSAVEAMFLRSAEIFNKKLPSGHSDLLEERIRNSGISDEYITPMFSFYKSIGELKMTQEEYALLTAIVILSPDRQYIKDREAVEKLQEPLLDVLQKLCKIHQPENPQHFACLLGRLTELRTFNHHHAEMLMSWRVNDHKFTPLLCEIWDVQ

LXR = conditions: Ogundare et al., 2010; cited from earlier work
RXR/NURR1 = conditions: Ogundare et al., 2010; cited from earlier work

PTPN11/SHP2, sequence (Q06124 whole entry): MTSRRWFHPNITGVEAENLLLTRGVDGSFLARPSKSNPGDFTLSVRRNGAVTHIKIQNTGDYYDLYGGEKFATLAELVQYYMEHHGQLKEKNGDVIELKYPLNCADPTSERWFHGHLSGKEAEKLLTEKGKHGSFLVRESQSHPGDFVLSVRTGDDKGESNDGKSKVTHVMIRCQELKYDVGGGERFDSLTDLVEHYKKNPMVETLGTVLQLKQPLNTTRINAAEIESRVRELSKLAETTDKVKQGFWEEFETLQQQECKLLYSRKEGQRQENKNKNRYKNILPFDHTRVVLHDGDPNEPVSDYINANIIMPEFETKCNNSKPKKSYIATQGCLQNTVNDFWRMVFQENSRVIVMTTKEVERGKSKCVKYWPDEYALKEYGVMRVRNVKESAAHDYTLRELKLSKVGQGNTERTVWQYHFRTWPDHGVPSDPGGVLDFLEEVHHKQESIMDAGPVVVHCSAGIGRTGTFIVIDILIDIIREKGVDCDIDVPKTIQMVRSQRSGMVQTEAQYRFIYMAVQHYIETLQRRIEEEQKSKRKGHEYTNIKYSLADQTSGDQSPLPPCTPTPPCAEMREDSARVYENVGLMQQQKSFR

SMILES: CCc1oc2cc(S(=O)(=O)Nc3ccc(S(=O)(=O)Nc4nccs4)cc3)ccc2c1C(=O)c1cc(Br)c(O)c(Br)c1 [PTP1B Inhibitor, 3-(3,5-Dibromo-4-hydroxy-benzoyl)-2-ethyl-benzofuran-6-sulfonicacid-(4-(thiazol-2-ylsulfamyl)-phenyl)-amide]
- IC50 (PTPN11/SHP2): 1.82e-06 M

SMILES: CC(CCCC(C)C1CCC2C3C(O)CC4CC(NCCCNCCCCN)CCC4(C)C3CC(O)C12C)C(=O)O (single isomer, unassigned) [ENT-05]
- pIC50 (PTPN11/SHP2-FL (E76K)): 7.37

SMILES: CC(C)[C@@H](CC[C@@H](C)[C@H]1CC[C@H]2[C@@H]3[C@H](O)C[C@H]4C[C@@H](NCCCNCCCCN)CC[C@]4(C)[C@H]3CC[C@]12C)OS(=O)(=O)O (single isomer, unassigned) [ENT-01, squalamine phosphate]
- mRNA levels for all of the genes in Table 5A, in words (stomach mRNA): significant increase
- number of significant features, Down-regulated, fold change threshold 1.3× ([1]; Old vs young, both treated): 1606
- number of significant features, Down-regulated, fold change threshold 2× ([1]; Old vs young, both treated): 267
- number of significant features, Down-regulated, fold change threshold 4× ([1]; Old vs young, both treated): 69
- number of significant features, Down-regulated, fold change threshold 8× ([1]; Old vs young, both treated): 36
- number of significant features, Down-regulated, fold change threshold 16× ([1]; Old vs young, both treated): 27
- number of significant features, Down-regulated, fold change threshold Any ([1]; Old vs young, both treated): 7534
- number of significant features, Up-regulated, fold change threshold 1.3× ([1]; Old vs young, both treated): 1647
- number of significant features, Up-regulated, fold change threshold 2× ([1]; Old vs young, both treated): 559
- number of significant features, Up-regulated, fold change threshold 4× ([1]; Old vs young, both treated): 263
- number of significant features, Up-regulated, fold change threshold 8× ([1]; Old vs young, both treated): 178
- number of significant features, Up-regulated, fold change threshold 16× ([1]; Old vs young, both treated): 135
- number of significant features, Up-regulated, fold change threshold Any ([1]; Old vs young, both treated): 7479
- number of significant features, Down-regulated, fold change threshold 1.3× ([1]; treatment vs control (old)): 2235
- number of significant features, Down-regulated, fold change threshold 2× ([1]; treatment vs control (old)): 431
- number of significant features, Down-regulated, fold change threshold 4× ([1]; treatment vs control (old)): 66
- number of significant features, Down-regulated, fold change threshold 8× ([1]; treatment vs control (old)): 25
- number of significant features, Down-regulated, fold change threshold 16× ([1]; treatment vs control (old)): 11
- number of significant features, Down-regulated, fold change threshold Any ([1]; treatment vs control (old)): 7460
- number of significant features, Up-regulated, fold change threshold 1.3× ([1]; treatment vs control (old)): 2430
- number of significant features, Up-regulated, fold change threshold 2× ([1]; treatment vs control (old)): 766
- number of significant features, Up-regulated, fold change threshold 4× ([1]; treatment vs control (old)): 317
- number of significant features, Up-regulated, fold change threshold 8× ([1]; treatment vs control (old)): 168
- number of significant features, Up-regulated, fold change threshold 16× ([1]; treatment vs control (old)): 116
- number of significant features, Up-regulated, fold change threshold Any ([1]; treatment vs control (old)): 7553
- number of significant features, Down-regulated, fold change threshold 1.3× ([1]; treatment vs control (young)): 2367
- number of significant features, Down-regulated, fold change threshold 2× ([1]; treatment vs control (young)): 642
- number of significant features, Down-regulated, fold change threshold 4× ([1]; treatment vs control (young)): 144
- number of significant features, Down-regulated, fold change threshold 8× ([1]; treatment vs control (young)): 47
- number of significant features, Down-regulated, fold change threshold 16× ([1]; treatment vs control (young)): 12
- number of significant features, Down-regulated, fold change threshold Any ([1]; treatment vs control (young)): 7553
- number of significant features, Up-regulated, fold change threshold 1.3× ([1]; treatment vs control (young)): 1430
- number of significant features, Up-regulated, fold change threshold 2× ([1]; treatment vs control (young)): 232
- number of significant features, Up-regulated, fold change threshold 4× ([1]; treatment vs control (young)): 58
- number of significant features, Up-regulated, fold change threshold 8× ([1]; treatment vs control (young)): 38
- number of significant features, Up-regulated, fold change threshold 16× ([1]; treatment vs control (young)): 28
- number of significant features, Up-regulated, fold change threshold Any ([1]; treatment vs control (young)): 7460

SMILES: CC(CCCC(C)C1CCC2C3C(O)CC4CC(NCCCNCCCCN)CCC4(C)C3CCC12C)C(=O)O (single isomer, unassigned) [ENT-06]
- activity at PP1B, in words (PP1B): inactive
- activity at PP1A, in words (PP1A): inactive
- activity at PP2A alpha, in words [2]: inactive
- activity at PTPN6/SHP1, in words (PTPN6/SHP1): inactive
- activity at PTPN2, in words (PTPN2/TC-PTP): inactive
- pIC50 (PTPN11/SHP2-FL (E76K)): 6.46

SMILES: [2H]C([2H])(CCC(C)C1CCC2C3C(O)CC4CC(NCCCNCCCCNCCCN)CCC4(C)C3CCC12C)C([2H])(C)C(=O)O (stereo not drawn) [ENT-03D3]
- effect on body weight, in words [3]: gained weight

SMILES: C[C@H](CCC[C@@H](C)[C@H]1CCC2C3C(CC[C@@]21C)[C@@]1(C)CCC(=O)C=C1C[C@H]3O)C(=O)O (stereo partly drawn) [7-HOCA, 7-alpha hydroxy-3-oxo-4-cholestenoic acid]
- activation of FXR receptor (FXR): did not activate
- activation of LXR receptor (LXR): did not activate
- activation of RXR/NURR1 receptors (RXR/NURR1): did not activate
